# ChEMBL document CHEMBL1127680, “Specific inhibitors of ileal bile acid transport” (J Med Chem, 1994)
# Tests used:
# Type in all cases: functional
# [1] = organism: Oryctolagus cuniculus; test: The compound was evaluated for the inhibition of Na+-dependent [3H]taurocholate uptake into ileal brush border membrane vesicles in rabbit, by 50%
# [2] = organism: Oryctolagus cuniculus; test: The compound was evaluated for the inhibition of Na+-dependent [3H]taurocholate uptake into ileal brush border membrane vesicles in rabbit, by 75%
# [3] = organism: Oryctolagus cuniculus; test: The compound was evaluated for the inhibition of Na+-dependent [3H]taurocholate uptake into ileal brush border membrane vesicles in rabbit, by 25%
# [4] = tested on: Rattus norvegicus; test: The compound was evaluated for the percentage inhibition of ileal taurocholate transport, in anesthetized wistar rats at 30 min
# [5] = organism: Oryctolagus cuniculus; test: The compound was evaluated for the inhibition of Na+-dependent [3H]taurocholate uptake into ileal brush border membrane vesicles in rabbit; by 75%
# [6] = tested on: Rattus norvegicus; test: The compound was evaluated for the percentage inhibition of ileal taurocholate transport, in anesthetized wistar rats at 60 min
# [7] = tested on: Rattus norvegicus; test: The compound was evaluated for the percentage inhibition of ileal taurocholate transport; in anesthetized wistar rats at 12 min
# [8] = organism: Oryctolagus cuniculus; test: The compound was evaluated for the inhibition of Na+-dependent [3H]taurocholate uptake into ileal brush border membrane vesicles in rabbit; by 50%
# [9] = organism: Oryctolagus cuniculus; test: The compound was evaluated for the inhibition of Na+ dependent [3H]taurocholate uptake into ileal brush border membrane vesicles in rabbit; by 25%
# [10] = tested on: Rattus norvegicus; test: The compound was evaluated for the percentage inhibition of ileal taurocholate transport, in anesthetized wistar rats at 12 min
Compound,IC50 [1] [µM],IC75 [2] [µM],IC25 [3] [µM],Inhibition [4] [%],IC75 [5] [µM],Inhibition [6] [%],Inhibition [7] [%],IC50 [8] [µM],IC25 [9] [µM],Inhibition [10] [%]
C[C@H](CCC(=O)NCCS(=O)(=O)O)[C@H]1CC[C@H]2[C@@H]3[C@H](O)C[C@@H]4C[C@H](O)CC[C@]4(C)[C@H]3CC[C@]12C,,61,13,,,,,,,
C[C@H](CCC(=O)O)[C@H]1CC[C@H]2[C@@H]3[C@H](O)C[C@@H]4C[C@H](O)CC[C@]4(C)[C@H]3C[C@H](O)[C@]12C,,152,40,,,,,,,
CC(CCC(=O)O)C1CC[C@H]2[C@@H]3[C@H](O)C[C@@H]4C[C@@H](OCCNC(=O)CCC(C)C5CC[C@H]6[C@@H]7[C@H](O)C[C@@H]8C[C@H](OC(c9ccccc9)c9ccccc9)CC[C@]8(C)[C@H]7C[C@H](O)[C@]56C)CC[C@]4(C)[C@H]3C[C@H](O)[C@]12C (stereo partly specified),> 250,> 250,125,,,,,,,
CC(CCC(=O)NCCO[C@H]1CC[C@@]2(C)[C@@H](C1)C[C@@H](O)[C@@H]1[C@@H]2C[C@H](O)[C@]2(C)C(C(C)CCC(=O)O)CC[C@@H]12)C1CC[C@H]2[C@@H]3[C@H](O)C[C@@H]4C[C@H](O)CC[C@]4(C)[C@H]3C[C@H](O)[C@]12C (stereo partly specified),,,,23,57,18,23,36,20,
CC(CCC(=O)O)C1CC[C@H]2[C@@H]3[C@H](O)C[C@@H]4C[C@@H](OCCNC(=O)CCC(=O)NCCCNC(=O)CCC(C)C5CC[C@H]6[C@@H]7[C@H](O)C[C@@H]8C[C@H](OC(c9ccccc9)c9ccccc9)CC[C@]8(C)[C@H]7C[C@H](O)[C@]56C)CC[C@]4(C)[C@H]3C[C@H](O)[C@]12C (stereo partly specified),19,30,9,16,,10,,,,26

# More lines, main results first:
IC50 [1] [µM],Compound,IC75 [2] [µM],IC25 [3] [µM],Inhibition [4] [%],IC75 [5] [µM],Inhibition [6] [%],Inhibition [7] [%],IC50 [8] [µM],IC25 [9] [µM],Inhibition [10] [%]
> 250,CC(CCC(=O)O)C1CC[C@H]2[C@@H]3[C@H](O)C[C@@H]4C[C@@H](OCCNC(=O)CCC(C)C5CC[C@H]6[C@@H]7CC[C@@H]8C[C@H](O)CC[C@]8(C)[C@H]7CC[C@]56C)CC[C@]4(C)[C@H]3C[C@H](O)[C@]12C (stereo partly specified),> 250,154,,,,,,,
> 250,CC(CCC(=O)O)C1CC[C@H]2[C@@H]3[C@H](O)C[C@@H]4C[C@@H](NC(=O)CCC(C)C5CC[C@H]6[C@@H]7CC[C@@H]8C[C@H](O)CC[C@]8(C)[C@H]7CC[C@]56C)CC[C@]4(C)[C@H]3C[C@H](O)[C@]12C (stereo partly specified),> 250,176,,,,,,,
48,CC(CCC(=O)N[C@H]1CC[C@@]2(C)[C@@H](C1)C[C@@H](O)[C@@H]1[C@@H]2C[C@H](O)[C@]2(C)C(C(C)CCC(=O)O)CC[C@@H]12)C1CC[C@H]2[C@@H]3[C@H](O)C[C@@H]4C[C@H](O)CC[C@]4(C)[C@H]3C[C@H](O)[C@]12C (stereo partly specified),84,24,59,,54,,,,51
